Data set [1] is described as follows: in vitro digestibility (lipase hydrolysis, TLC densitometry). The format is in vitro ADME, porcine. Particulars: pig, pancreatic lipase; in three hours; 37° C., pH 7.1 phosphate buffer with cholic acid; read-out: hydrolyzed (extent of hydrolysis by lipase). The protocol: (§1) This example outlines the procedure for estimating the in vitro digestibility of the long chain diol diesters of this invention.
(§2) 1. Buffer: A pH 7.1 phosphate buffer is prepared by dissolving 6.8 g. KH2 PO4 in 1 L. of millipore filtered water (to yield 0.05M phosphate). Fifty mg. Ca(NO3)2 and 5.0 g. cholic acid (Na salt, an ox bile isolate from Sigma) are added to give 300 microM Ca^++ and 0.5 % cholic acid in 0.05M phosphate. The pH is adjusted to approximately 7.1 with solid NaOH. Several drops of Baker "Resi-analyzed" toluene are added to prevent bacterial growth during storage at 3°-5° C.
(§3) 2. Lipase: About 15 mg./mL commercial porcine pancreatic lipase from U.S. Biochemical Corporation is dissolved in buffer.
(§4) 3. Substrates and Standards: A 1.0 mL volumetric flask is charged with an amount of lipid substrate calculated to give a concentration of 200 nanomoles per microliter in Baker "Resi-analyzed" toluene. (The proper concentration may be approximated by doubling the molecular weight of the lipid in question, dividing by 10, and diluting to the mark; this yields about 200 nanomoles per microliter.) This preparation affords the substrate to be used in the hydrolysis reactions. […]

Data set [2] can be described thus: caloric availability by in vivo animal feeding study (body weight gain). Also on record: species or system male Sprague-Dawley rats. Particulars: rats, diet of 50% fort and 21% test compound, 14 days; from weight gain versus corn oil base line. From the text:
This example illustrates how the novel fat mimetics of this invention are screened for caloric availability by a carefully controlled in vivo animal feeding study.
An experimental relationship between total calories ingested and animal body weight gain is established by monitoring the body weight gain associated with consumption of a nutritionally balanced diet containing varying concentrations of a reference substance such as corn oil which has a known caloric availability. Correlations between total calories ingested and body weight gain are excellent (r=0.99).
Caloric availability of an unknown substance is evaluated by substituting a specific weight of the unknown substance for the reference substance and observing the body weight gain. The gain in body weight is equated to a total number of calories using the correlation previously established for the reference data. The estimated number of calories ingested are divided by the weight of unknown substance to give the apparent calories per gram for the unknown substance. Generally speaking, in these bioavailability studies, the degree of perianal pelt soiling correlates with reduced bioavailability.
The test animals are six-week-old male Sprague-Dawley rats obtained from the Portage, Mich. facility of the Charles River Laboratories, Inc. After acclimation for 15 days, the test duration is 14 days. […]

The subject of data set [3] is porcine pancreatic lipase. As to the kind of experiment: in vitro digestibility (lipase hydrolysis, TLC densitometry). In kind it is in vitro ADME. The note with it: in 10 minutes; 37° C., pH 7.1 phosphate buffer with cholic acid. The method, then:
as §1, §2, §3, §4

Data on two compounds can be found in patent publication US5008126A, “Long chain diol diesters as low calorie fat mimetics” (Nabisco Brands, Inc., priority 1989, dated 1991).

Consider `CCCCCCCC/C=C\CCCCCCCC(=O)OCC(CCCCCCCCCCCC)OC(=O)CCCCCCC/C=C\CCCCCCCC` (stereo not drawn) [Example 1, 1,2 Tetradecane dioleate], for which the metabolised at 3 h in data set [1] is around 20%. Further, the “caloric availability (kcal/gram upon being metabolized)” value in data set [2] was “about 6.0 kcal/gram”.

In the case of `CCCCCCCC/C=C\CCCCCCCC(=O)OCC(COC(=O)CCCCCCC/C=C\CCCCCCCC)OC(=O)CCCCCCC/C=C\CCCCCCCC` [triolein, reference compound], the “hydrolysis by lipase (in words)” value in data set [3] was “substantially hydrolyzed”.
